Data reported in the supplement of paper PMC10307832.

Assays:
Experiment in all cases: relative viability (nuclei count vs DMSO), 5 days (fraction); higher = more cells survive
Motesanib + Dasatinib = compound: CC1(C)CNc2cc(NC(=O)c3cccnc3NCc3ccncc3)ccc21 [Motesanib] + Cc1nc(Nc2ncc(C(=O)Nc3c(C)cccc3Cl)s2)cc(N2CCN(CCO)CC2)n1 [Dasatinib] (partner 0.075 µM)
Outline: (§1)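 The day after seeding in 1536-well plates, lung cancer cell lines were treated by pin tool with a single drug, or with a fixed anchor-drug dose together with five library-drug doses (not always all listed) in √10 steps. After 5 days, a combined fix-and-stain solution (final 0.05% Triton X-100, 1% formaldehyde, 1 ug/ml Hoechst) was added. Nuclei counted on 4× images gave relative viability as treated counts over vehicle counts, reported as the median of duplicate plates.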

[1] = compound: C[C@@]1(C(=O)Nc2ccc(F)nc2)CCCN1c1nc(Nc2cc(C3CC3)n[nH]2)c2cccn2n1 + CC(C)C[C@H](NC(=O)[C@H](Cc1ccccc1)NC(=O)c1cnccn1)B(O)O [Bortezomib] (partner 0.002 µM)
Outline: as §1

[2] = compound: C[C@@]1(C(=O)Nc2ccc(F)nc2)CCCN1c1nc(Nc2cc(C3CC3)n[nH]2)c2cccn2n1 + Cc1cc(Nc2cc(N3CCN(C)CC3)nc(Sc3ccc(NC(=O)C4CC4)cc3)n2)n[nH]1 [Tozasertib] (partner 0.1 µM)
Outline: as §1

[3] = compound: C[C@@]1(C(=O)Nc2ccc(F)nc2)CCCN1c1nc(Nc2cc(C3CC3)n[nH]2)c2cccn2n1 + Nc1nc2[nH]cc(CCc3ccc(C(=O)N[C@@H](CCC(=O)O)C(=O)O)cc3)c2c(=O)[nH]1 [Pemetrexed] (partner 0.2 µM)
Outline: as §1

Cell Line	relative viability (Motesanib + Dasatinib; first compound 0.01 µM)	relative viability (Motesanib + Dasatinib; first compound 0.03162 µM)	relative viability (Motesanib + Dasatinib; first compound 0.1 µM)	relative viability (Motesanib + Dasatinib; first compound 0.3162 µM)	relative viability (Motesanib + Dasatinib; first compound 1 µM)	relative viability ([1]; first compound 0.04 µM)	relative viability ([1]; first compound 0.1265 µM)	relative viability ([1]; first compound 0.4 µM)	relative viability ([1]; first compound 1.265 µM)	relative viability ([2]; first compound 0.04 µM)	relative viability ([2]; first compound 0.1265 µM)	relative viability ([2]; first compound 0.4 µM)	relative viability ([2]; first compound 1.265 µM)	relative viability ([3]; first compound 0.04 µM)	relative viability ([3]; first compound 0.1265 µM)	relative viability ([3]; first compound 0.4 µM)	relative viability ([3]; first compound 1.265 µM)
NCI-H322M	0.234	0.216	0.268	0.26	0.262	1.22	0.894	1.06	1.1	0.464	0.347	0.361	0.391	0.63	0.525	0.52	0.537
NCI-H441	0.594	0.627	0.604	0.613	0.642	0.567	0.285	0.276	0.463	0.496	0.403	0.349	0.369	0.246	0.261	0.243	0.267
NCI-H460	0.406	0.481	0.525	0.63	0.626	1.13	0.991	0.892	0.93	0.525	0.487	0.26	0.136	0.0607	0.0684	0.0535	0.0527
NCI-H520	0.208	0.196	0.21	0.226	0.218	0.621	0.446	0.501	0.483	0.48	–	0.442	0.423	0.661	0.529	0.581	0.615
NCI-H596	0.651	0.543	0.534	0.563	0.53	0.908	0.892	0.929	1	0.883	0.748	0.683	0.71	0.494	0.497	0.431	0.487
NCI-H647	0.194	0.169	0.151	0.191	0.221	1.15	0.9	0.706	0.791	0.543	0.217	0.159	0.123	0.174	0.163	0.174	0.123
NCI-H650	0.399	–	0.442	0.501	0.444	0.699	0.762	0.605	0.46	0.714	0.479	0.523	0.398	0.837	0.706	0.745	0.692
NCI-H661	0.818	0.842	0.833	0.977	0.861	0.924	1.08	0.653	0.819	0.37	0.345	0.369	0.338	0.918	0.909	0.796	0.899
NCI-H838	0.301	0.274	0.333	0.307	0.391	0.807	0.687	0.498	0.547	0.249	0.221	0.166	0.259	0.234	0.233	0.216	0.215
NCI-H1355	0.74	0.548	0.717	0.732	0.684	1.15	1.04	0.948	0.969	0.551	0.438	0.323	0.526	1.01	0.957	0.826	0.953
NCI-H1437	0.266	0.22	0.383	0.575	0.405	0.398	0.521	0.328	0.276	0.382	0.309	0.221	0.238	0.246	0.242	0.242	0.284
NCI-H1650	0.374	0.337	0.33	0.329	0.298	0.185	0.248	0.185	0.174	0.345	0.29	0.258	0.255	0.38	0.29	0.334	0.319
NCI-H1651	0.408	0.339	0.384	0.451	0.432	0.956	0.871	0.864	0.825	0.639	0.633	0.449	0.537	0.62	0.508	0.517	0.447
NCI-H1666	0.783	0.747	0.89	0.797	0.802	0.678	0.434	0.455	0.444	0.623	0.558	0.465	0.415	0.797	0.735	0.714	0.683
NCI-H1734	0.515	0.448	–	0.463	0.405	0.856	0.781	0.641	0.577	0.234	0.246	0.26	0.242	0.418	0.338	0.404	0.381
NCI-H1755	0.381	0.426	0.463	0.48	0.466	0.957	0.838	0.85	0.881	0.558	0.528	0.472	0.545	0.444	0.408	0.39	0.377
NCI-H1915	0.32	0.329	0.303	0.312	0.279	1.06	0.95	0.952	1.01	0.473	0.418	0.407	0.415	0.52	0.46	0.48	0.529
